Assay results as given in PMC12814168, “Fast, Bright, and Reversible Fluorescent Labeling of Rhodamine-Binding Proteins” (Journal of the American Chemical Society, 2025).
pKd: −log10 of the molar value. “And” between values parts separate entries of the source, which are not always exact repeats. Equal values may be shown once. Read-outs that look alike come from different tables or passages of the source.

Assays:
[1] = molecular target: T1, Rho-tag (Chlorobaculum tepidum, UniProt Q8KFZ1, V17Q/Q25R/S33N/E36V/H40T/K51V/F62Y/M64F/S65D/A66M/G67E/E70D/V87I/G107D/D121K/F125Y/D126E/N138A/S152V); assay: Fluorescence polarization with 0.5-20 nM dye (0.5 nM TMR in Figure S6 titrations) and serial protein dilutions in 50 mM HEPES, 50 mM NaCl, pH 7.3 with BSA, 25 °C, N at least 3.; type: binding; settings: SD, n = 3; read-out: K D, other Rho-tag forms and JF549
T1 construct: gene CT0179; His10-TEV, recombinant from E. coli
Description: (§1) electroporation buffer, aliquoted (12 x 50 µL) on ice, and used immediately for electroporation with 1–5 µg DNA precipitated DNA. Cells were transferred to pre-chilled 0.2 cm gap electroporation cuvettes (Bio-Rad), and electroporated using a Gene Pulser Xcell (0.54 kV, 25 µF, infinite resistance, exponential decay). Cells were recovered in 2 mL YPDS at 30 °C, shaking for 1 h and afterwards expanded in 100 mL SDCAA at 30 °C for 2 days.
(§2) YSD protein expression, staining and sorting
(§3) SGCAA medium was used for induction and cells were grown at 30 °C, 250 rpm for 20 h. […] Samples were filtered through 5 mL round-bottom tubes with cell strainer caps (Falcon) and analyzed directly by FACS. […]
(§4) PMT voltages were set based on negative controls (no protein expression). Gates were applied for FSC, SSC, and fluorescence; signals >10³ (bilirubin or rhodamine dyes) were considered positive, background ≤10². […]
(§5) regions were amplified via KOD PCR reaction using primers containing unique barcodes (NGS adaptor ligation oligos, Eurofins Genomics) analyzed by NGS sequencing (Illumina technology, Eurofins Genomics). The NGS results were analyzed using a custom-build pipeline as described previously. Alternatively, plasmid DNA was transformation into E.cloni 10G and single colonies were analyzed by Sanger sequencing (Eurofins). […]
(§6) Stopped-flow kinetic fluorescence anisotropy […]
(§7) FA: fluorescence anisotropy, B: max. […]

[2] = Spectral properties: absolute quantum yield, extinction coefficient, brightness; type: physicochemical
Description: Serially fluorophore dilutions (0 – 3 μM) were prepared in activity buffer in presence or absence […]
Measurements were performed in 200 μL volumes in clear-bottom non-binding […]
recorded on the Spark20M microplate reader (Tecan). Following baseline correction, the absorbance was plotted against the dye concentration and the data were fitted linearly. Path […]
coefficients were calculated via the Lambert-Beer law (Equation 1).
Absolute quantum yields were determined at room temperature using a Hamamatsu Quantaurus-QY spectrometer (C11347 model). Rhodamine dyes (1 μM) were tested with and without excess […]
Samples were prepared in 800 μL glass vials
Quantum yield represent as mean ± standard deviation from three technical replicates. The brightness was thereafter calculated using Equation 5. […]

[3] = molecular target: T2, SiR-tag; assay: Fluorescence intensity titration of dye (not given; JF646 by comparison with the text) with serial protein dilutions, 50 mM HEPES, 50 mM NaCl, pH 7.3 with BSA, 25 °C, n at least 3.; type: binding; settings: SD, n = 3; read-out: KD [M] (Supplementary Table 10, replicates)
T2 construct: 2 + PROSS8 background combined with P57M/F58Y/R60L and G63N/F64K/D65N/M66H; His10-TEV
From the text: (§8) Supplementary Table 10 | Characterization of putative SiR-tag variants. variant sequence KD [M] TM [° C]
(§9) Binding affinity determined via fluorescence intensity. *data from single replicate. If not stated otherwise, average data and standard deviation from n ≥ 3 individual replicates. Thermostability (T M) determined via […]
(§10) Supplementary Table 11 | Plasmids deposited on Addgene
(§11) Addgene ID plasmid insert expression organism
(§12) 249667 pcDNA5/FRT/TO H2B-Rho-tag-T2A-mEGFP mammalian cells
(§13) 249668 pcDNA5/FRT/TO H2B-SiR-tag-T2A-mEGFP mammalian cells
(§14) 249669 pcDNA5/FRT/TO CD86-Rho-tag mammalian cells
(§15) 249670 pcDNA5/FRT/TO CD86-SiR-tag mammalian cells
(§16) 249671 pTol2-HuC Rho-tag-Pro30-mEGFP-NLS3x zebrafish […]
as §3, §4
(§17) regions were amplified via KOD PCR reaction using primers containing unique barcodes (NGS adaptor ligation oligos, Eurofins Genomics) analyzed by NGS sequencing (Illumina technology, Eurofins Genomics). The NGS results were analyzed using a custom-build pipeline as described previously. […]

[4] = molecular target: T3, variant 2; assay: as above; type: binding; settings: SD, n = 3; read-out: KD [M] (Supplementary Table 10, replicates)
T3 construct: Rho-tag background, loop2 library hit
From the text: as §8, §9, §10, §11, §12, §13, §14, §15, §16, §3, §4, §17

[5] = molecular target: T4, SAV2435 (Staphylococcus aureus, UniProt A0A0H3K0Y5); assay: Fluorescence polarization at constant 20 nM TMR with serial protein dilutions (0-200 uM) in 50 mM HEPES, 50 mM NaCl, pH 7.3 with BSA, 25 °C, N at least 3.; type: binding; settings: SD, n = 3
T4 construct: recombinant from E. coli, N-terminal His10-TEV (pET51b), 20 kDa
From the text: (§18) 1 Dye and candidate selection for the development of Rho-tags. A) Chemical structure of TMR and SiR and their corresponding HaloTag Ligand (HTL) derivatives. […] B) BOILED-Egg representation generated with SwissADME for molecules shown in (A). Correlation between the topological polar surface area (TPSA) and predicted water partitioning coefficient (WlogP). Gray area–predicted low passive absorption to the gastrointestinal (GI) system and limited brain access (BBB). Egg white–high probability for GI absorption. Egg yolk–high probability for BBB permeation. Blue dot–substrate is predicted to be actively exported from the central nervous system. […]
as §3, §4, §17

[6] = molecular target: T5, BABP (Gallus gallus, UniProt P80226); assay: as above; type: binding; settings: SD, n = 3
T5 construct: gene FABP1; recombinant from E. coli, N-terminal His10-TEV (pET51b), 15 kDa
T5 sequence (P80226 2-126): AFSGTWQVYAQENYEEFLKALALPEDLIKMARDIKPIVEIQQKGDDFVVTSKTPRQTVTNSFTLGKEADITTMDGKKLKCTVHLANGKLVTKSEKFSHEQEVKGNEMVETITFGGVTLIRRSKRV
From the text: as §18, §3, §4, §17

[7] = molecular target: cpRho-tag; assay: Fluorescence polarization with 0.5-20 nM dye (0.5 nM TMR in Figure S6 titrations) and serial protein dilutions in 50 mM HEPES, 50 mM NaCl, pH 7.3 with BSA, 25 °C, N at least 3.; type: binding; settings: SD, n = 3; read-out: K D, other Rho-tag forms and JF549
Description: as §1, §2, §3, §4, §5, §6, §7

[8] = molecular target: T6, Rho-tag (Chlorobaculum tepidum, UniProt Q8KFZ1, A66M/D121K/D126E/E36V/E70D/F125Y/F62Y/G107D/G67E/H40T/K51V/M64F/N138A/Q25R/S152V/S33N/S65D/V17Q/V87I); assay: Fluorescence polarization at constant 20 nM TMR-linked ligand with serial Rho-tag dilutions (0-200 uM), pH 7.3, 25 °C, three independent measurements.; type: binding; settings: SD, n = 3
T6 construct: gene CT0179; His10-TEV, recombinant from E. coli
Description: (§19) Binding affinities KD was derived from fluorescence polarization experiments at constant dye concentration
(§20) (20 nM) and serial protein dilutions (0 – 200 µM). Average data and standard deviation from three
independent measurements (N = 3).
(§21) Biochemical and Spectral Characterization
(§22) Serial protein dilutions (0 – 200 μM) were prepared in activity buffer and transferred to black flat bottom low-volume 384-well plates (Greiner). Rhodamine dyes (0.5 – 20 nM) were added in activity buffer containing 1% (w/v) bovine serum albumin (BSA, Fraction V, Roth) using a 384-channel VIAFLO pipettor (Integra) at a 1:1 mixing ratio.
(§23) JF 646) or fluorescence polarization (FP, all other dyes) measurements were conducted on a Spark20M microplate reader (Tecan) at 25 °C in technical triplicates. Excitation and emission settings are summarized in Method Table 5.
(§24) For data processing, technical triplicates were averaged and normalized between 0 ( i.e. free dye)
(§25) and 1 (fully bound dye). The dissociation constants KD were determined by fitting a single-site
binding model (Equation 2) to the data.
(§26) at least three independent experiments (N ≥ 3), unless otherwise mentioned.
(§27) between dyes or proteins, log 10 fold changes relative to a reference e.g., parental protein were
(§28) Y: fluorescence intensity [a.u.] or fluorescence polarization [mFP], A: min. FI / FP, B: max.
(§29) protein concentration [mol/L], h: Hill coefficient, K D: dissociation constant [mol/L].

[9] = molecular target: T1, Rho-tag; assay: as above; type: binding; settings: SD, n = 3; read-out: KD [µM] (Supplementary Table 4)
Description: as §19, §20
independent measurements (N = 3).
as §21, §22, §23, §24, §25
binding model (Equation 2) to the data.
as §26, §27, §28, §29

[10] = with 20 µM Rho-tag (TMR, JF549) or SiR-tag (SiR, JF646)

T1 sequence (Q8KFZ1 entry or part of it with the stated changes): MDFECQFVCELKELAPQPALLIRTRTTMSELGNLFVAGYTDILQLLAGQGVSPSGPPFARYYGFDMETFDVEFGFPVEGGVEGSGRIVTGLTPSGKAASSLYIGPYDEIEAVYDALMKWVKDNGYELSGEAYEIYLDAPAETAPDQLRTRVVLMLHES
T4 sequence (A0A0H3K0Y5 entry or part of it): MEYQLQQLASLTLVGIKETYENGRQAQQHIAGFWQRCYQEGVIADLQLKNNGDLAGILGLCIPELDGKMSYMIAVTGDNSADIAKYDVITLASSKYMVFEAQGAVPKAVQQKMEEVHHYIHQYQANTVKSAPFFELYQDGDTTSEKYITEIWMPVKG
T6 sequence (Q8KFZ1 entry or part of it with the stated changes): as the sequence (Q8KFZ1 entry or part of it with the stated changes) above

Q: With `O=C1OC2(c3ccc(N4CCC4)cc3Oc3cc(N4CCC4)ccc32)c2ccccc21` [JF549, Janelia Fluor 549 (TMR derivative)] as the compound, how does the pKd [1] read?
A: The pKd was 8.40.

Q: With `O=C1OC2(c3ccc(N4CCC4)cc3Oc3cc(N4CCC4)ccc32)c2ccccc21` [JF549] as the compound, how does the “Absolute quantum yield Φ” value [2] read?
A: Its value is 0.844 ± 0.008.

Q: And the “Brightness ε × Φ” value [2]?
A: The value was 128 ± 3.

Q: And the “Extinction coefficient ε” value [2]?
A: The value was 152 ± 22.

Q: And the “Extinction coefficient ε” value ([2]; buffer)?
A: Its value is 101 ± 08 M-1cm-1 × 103.

Q: And the “Absolute quantum yield Φ” value ([2]; buffer (unbound dye))?
A: Its value is 0.842 ± 0.012.

Q: And the “Absolute quantum yield Φ” value [2, 10]?
A: The value was 0.87 ± 0.02 and 0.871 ± 0.018.

Q: What about the “Brightness ε × Φ” value [2, 10] of the same compound?
A: The value was 105 ± 4 M-1cm-1 × 103.

Q: What about the “Extinction coefficient ε” value [2, 10] of the same compound?
A: The value was 121 ± 22 M-1cm-1 × 103.

Q: Which results are given for `C[Si]1(C)c2cc(N3CCC3)ccc2C2(OC(=O)c3ccccc32)c2ccc(N3CCC3)cc21` [JF646, Janelia Fluor 646 (SiR derivative)]?
A: Kd [3]: 2e-08 M; Kd [4]: 9.1e-08 M

Q: For `C[Si]1(C)c2cc(N3CCC3)ccc2C2(OC(=O)c3ccccc32)c2ccc(N3CCC3)cc21` [JF646], which “Absolute quantum yield Φ” value [2] is on record?
A: Its value is 0.554 ± 0.011.

Q: And the “Extinction coefficient ε” value [2]?
A: Its value is 162 ± 12.

Q: What about the “Brightness ε × Φ” value ([2]; buffer) of the same compound?
A: Its value is 051 ± 1 M-1cm-1 × 103.

Q: What about the “Extinction coefficient ε” value ([2]; buffer) of the same compound?
A: Its value is 106 ± 24 M-1cm-1 × 103.

Q: What about the “Absolute quantum yield Φ” value ([2]; buffer (unbound dye)) of the same compound?
A: Its value is 0.477 ± 0.024.

Q: And the “Absolute quantum yield Φ” value [2, 10]?
A: Its value is 0.660 ± 0.018.

Q: What about the “Extinction coefficient ε” value [2, 10] of the same compound?
A: The value was 152 ± 17 M-1cm-1 × 103.

Q: For `CN(C)c1ccc2c(-c3ccccc3C(=O)[O-])c3ccc(N(C)C)cc3[o+]c2c1` [TMR, tetramethylrhodamine], which “Absolute quantum yield Φ” value ([2]; HaloTag7-bound) is on record?
A: The value was 0.542 ± 0.013.

Q: And the “Brightness ε × Φ” value ([2]; HaloTag7-bound)?
A: Its value is 55 ± 3 M-1cm-1 × 103.

Q: What about the “Extinction coefficient ε” value ([2]; HaloTag7-bound) of the same compound?
A: The value was 101 ± 08 M-1cm-1 × 103.

Q: And the “Brightness ε × Φ” value ([2]; buffer)?
A: The value was 39 ± 2 M-1cm-1 × 103.

Q: And the “Extinction coefficient ε” value ([2]; buffer)?
A: The value was 089 ± 11 M-1cm-1 × 103.

Q: And the “Absolute quantum yield Φ” value ([2]; buffer (unbound dye))?
A: Its value is 0.44 ± 0.01 and 0.439 ± 0.011.

Q: What about the “Absolute quantum yield Φ” value [2, 10] of the same compound?
A: The value was 0.73 ± 0.02 and 0.728 ± 0.019.

Q: And the “Brightness ε × Φ” value [2, 10]?
A: The value was 75 ± 1 M-1cm-1 × 103.

Q: And the “Extinction coefficient ε” value [2, 10]?
A: Its value is 103 ± 21 M-1cm-1 × 103.

Q: What about the pKd [5] of the same compound?
A: Its pKd is 4.77.

Q: What about the pKd [6] of the same compound?
A: Its pKd is 4.47.

Q: What about the pKd [7] of the same compound?
A: The pKd was 8.17.

Q: With `CN(C)c1ccc2c(-c3cc(C(=O)NCCOCCOCCCCCCCl)ccc3C(=O)[O-])c3ccc(=[N+](C)C)cc-3oc2c1` [TMR-HTL, tetramethylrhodamine-6-carboxyl HaloTag Ligand] as the compound, how does the pKd [8] read?
A: Its pKd is 5.01.

Q: Which Kd [9] does the source give for `CN(C)c1ccc2c(-c3cc(C(=O)NCCOCCOCCCCCNS(C)(=O)=O)ccc3C(=O)[O-])c3ccc(=[N+](C)C)cc-3oc2c1` [TMR-S5 (xHTL), tetramethylrhodamine-6-carboxyl exchangeable HaloTag Ligand S5] here?
A: Its Kd is 18.8 µM.

Q: With “tetramethylrhodamine-6-carboxyl SNAP-tag ligand BG (benzylguanine) [TMR-BG]” as the compound, how does the Kd [9] read?
A: Its Kd is 0.4 µM.

Q: For “tetramethylrhodamine-6-carboxyl SNAP-tag ligand CP (chloropyrimidine) [TMR-CP]”, which Kd [9] is on record?
A: Its Kd is 1.9 µM.
